From patent US20190010461A1, “HUMAN PLURIPOTENT STEM CELL-BASED SCREENING FOR SMOOTH MUSCLE CELL DIFFERENTIATION AND DISEASE” (Wisconsin Alumni Research Foundation, priority 2017, published 2019)
Counter-ions that a name gives are not always drawn.

Tests used:
[1] = test system: MYH11 promoter-driven luciferase activity; experiment: High-throughput screening, MYH11-Nluc-2A-Tom reporter human ES cell line, luciferase assay; format: cell-based; details: small molecules added day 4-14; selected when normalized reads > average+3×STDEV
Protocol: FIGS. 1A-1C depict a schematic of high-throughput screening. […] The cells were passaged at day 4 and seeded on the 96-well plate for screening (2×10^6 cells/plate). After the reporter cell line was differentiated into mesoderm, small molecules were added to the cells from day 4 to day 14. FIG. 1B depicts the results of the screening in two batches. The luciferase assay results of individual small molecules were normalized to the average reads of all samples for each batch. The small molecules were selected for further analysis when the normalized reads were greater than “average+3×STDEV”. FIG. 1C depicts optimizing the concentration of the selected small molecules.
The cells were treated with 50 ng/ml FGF2 and 20 ng/ml BMP4 for another two days. The cells were passaged at day 4 and seeded on the 96-well plate for screening (2×10^6 cells/plate). The compounds were added from day 4-14. The Luciferase substrate (1000× dilution) (Nano-Glo Luciferase Assay system, Promega) was added to the medium for 15 min and luminescence was measured. An increase in luminescence indicates increased MYH11 expression, which is an indicator of the contractile smooth muscle cell phenotype. The Thomson custom stem cell Modulator 1, GSK-kinase inhibitor library, SellekChem Kinase inhibitor library, Analyticon NATx library, Prestwick Chemical Library, GlaxoSmithKline Protein Kinase Inhibitors, and part of Enamine Representative Diversity library were used for screening.
High-throughput screening directs contractile smooth muscle cell differentiation—The construction of the MYH11-NLuc-tdTomato human ES cell reporter line generated by CRISPR/Cas9 technology is described in FIGS. 6A-6H. The reporter cell line was differentiated into mesoderm in E8BAC medium (Zhang et al., 2017) for two days and treated with FGF2 and BMP4 to further mature mesoderm for another two days. The cells were then passaged into a 96-well plate and exposed to small molecules for 10 days using a customized robotic workstation (FIG. 1A). The workstation was designed through collaboration with TECAN, which enables us to perform the automatic high-throughput screening at specific time point and in long-term. The medium were changed every other day and the small molecules were added during the feeding. […] We then validated these hits and optimized their concentration.

endothelium repair = details: Prasad 2005; Zheng 2014; cited from earlier work
MYH11-Tom+ cells = experiment: Flow cytometric analysis of MYH11-Tom+ cells in SMC differentiation; format: cell-based, human; details: with RepSox 25 μM; DAPT 20 μM, DBZ 10 μM, RO04929097 10 μM; day 10-16
Protocol: Data are represented as mean±standard deviation (SD). […] Scale bar=1 mm. […] Scale bar=50 μm. […] Data are represented as mean±SD. Student's t-test, *: P<0.05, n=3.
FIGS. 7A-7G show the target of RepSox. […] Cells were treated with RepSox (25 μM) or SiRNA. […] Cells were treated with RepSox (25 μM) or SiRNA. […] During the smooth muscle cells differentiation, cells were treated with or without RepSox from day 10-11. […] During the smooth muscle cells differentiation, cells were treated with RepSox for 1 or 20 hours at day 12. […] Cells were treated with RepSox and non-targeting control (NT)/SiRNA at day 10. The RNA was isolated at day 14.
Optimized smooth muscle cell differentiation—Human pluripotent stem cell cells (H1) were cultured in E8 medium on a […]™-coated plate. To achieve the best differentiation results, ES cells were split using EDTA at 1:4 ratios two days before the differentiation. The cells reached 80-90% confluency two days later. At the day of the differentiation, ES cells were dissociated by ACCUTASE™ (Invitrogen) for 3-5 min at 37 ° C. The cells were plated on a […]™-coated plate at 1:4 ratios (1×10^5 cells/cm2). […] An increased CHIR99021 concentration of 3 μM decreased cell proliferation at 36 hours but increased MYH11 expression. At 36 hours, the cells were passaged and seeded on a new […]™-coated plate (1.6×10^4 cells/cm2). The low cell density is critical for the differentiation. A cell density of 1.0-4.0×10^4 cells/cm2 for different cell lines can be tested, such that 100% cell confluence will be achieved at day 6, which gives rise to the best differentiation efficiency. The cells were treated with E6T medium (E8 medium minus FGF2 but still containing 1.7 ng/ml TGF-β1) for 18 hours to induce the transient and medium level expression of MEOX1. E5F medium (E8 medium minus insulin and TGF-β1, but still containing 100 ng/ml FGF2) was used to suppress MEOX1 expression for another 5 days (days 3-8). Next, the cells were treated with E6FVR medium (E6 medium with 100 ng/ml FGF2, 50 ng/ml VEGFA, and 5 μM RESV, a NOTCH agonist) to induce SMC progenitors from day 8-12. E6R (E6 medium+5 μM RESV) medium supplemented with RepSox (25 μM), was then used to further mature SMCs from day 12 to 24. Cells were split (1×10^5 cells/cm2) at day 16 and further differentiated until day 24. The cells can be cryopreserved at day 16 or day 24. For P-SMCs, T-SMCs, and PT-SMCs, RepSox was replaced by PDGF-BB (10 ng/ml), TGF-β1 (1.7 ng/ml), or combination of PDGF-BB and TGF-β1, respectively, from day 12 to 24. From day 0-4: medium was changed every day. From day 2-24: medium was changed every other day. For day 1 and day 8-24, 1.5×volumes of medium, compared to the normal volume used in the well, were used. […]

intimal hyperplasia = details: DeRose 1999; Gulkarov 2009; Sawada 2000; cited from earlier work
[2] = test system: Human pluripotent stem cell cells (H1); experiment: Mesoderm differentiation of H1 cells in E8BAC medium; format: cell-based; details: CHIR99021 increased to 3 μM (from 1 μM)
Protocol: The cells reached 80-90% confluency two days later. At the day of the differentiation, ES cells were dissociated by […] (Invitrogen) for 3-5 min at 37 ° C. The cells were plated on a […]-coated plate at 1:4 ratios (1×10^5 cells/cm2). […] An increased CHIR99021 concentration of 3 μM decreased cell proliferation at 36 hours but increased MYH11 expression. At 36 hours, the cells were passaged and seeded on a new […]-coated plate (1.6×10^4 cells/cm2). The low cell density is critical for the differentiation. […] […] (E6 medium+5 μM RESV) medium supplemented with RepSox (25 μM), was then used to further mature SMCs from day 12 to 24. Cells were split (1×10^5 cells/cm2) at day 16 and further differentiated until day 24. The cells can be cryopreserved at day 16 or day 24. […] From day 0-4: medium was changed every day. From day 2-24: medium was changed every other day. For day 1 and day 8-24, 1.5×volumes of medium, compared to the normal volume used in the well, were used.

Row | Structure (SMILES) | promotes MYH11+ SMC differentiation (increased MYH11 promoter-driven luciferase activity) [1] | further results
1 | CC(C(=O)O)c1ccc(-c2ccccc2)c(F)c1 (stereo not shown) [flurbiprofen, Flurbiprofen] | promotes MYH11^+ SMC differentiation | –
2 | CO[C@H]1C[C@@H]2CC[C@@H](C)[C@@](O)(O2)C(=O)C(=O)N2CCCC[C@H]2C(=O)O[C@H]([C@H](C)C[C@@H]2CC[C@@H](O)[C@H](OC)C2)CC(=O)[C@H](C)/C=C(\C)[C@@H](O)[C@@H](OC)C(=O)[C@H](C)C[C@H](C)/C=C/C=C/C=C/1C [rapamycin] | – | effect on endothelium repair (endothelium repair): suppressed
3 | CN(C)C(=O)OC1CNC(C#Cc2cc3ncnc(Nc4ccc(OCc5cccc(F)c5)c(Cl)c4)c3s2)C1 (stereo not shown) [GSK182497A] | promotes MYH11^+ SMC differentiation | –
4 | CNC(=O)c1cc(Oc2ccc(NC(=O)Nc3ccc(Cl)c(C(F)(F)F)c3)cc2)ccn1 [sorafenib, Sorafenib (Nexavar)] | promotes MYH11^+ SMC differentiation | –
5 | Cc1ccc(NC(=O)c2ccc(CN3CCN(C)CC3)cc2)cc1Nc1nccc(-c2cccnc2)n1 [imatinib, Imatinib Mesylate] | promotes MYH11^+ SMC differentiation | –
6 | NC(=O)c1sc(-n2cnc3ccccc32)cc1OCc1ccccc1Br [GSK1023156A] | promotes MYH11^+ SMC differentiation | –
7 | C[C@H](NC(=O)Cc1cc(F)cc(F)c1)C(=O)N[C@@H]1C(=O)N(C)c2ccccc2-c2ccccc21 [DBZ] | – | effect on RepSox improvement of MYH11-Tom+ cell differentiation (MYH11-Tom+ cells): abolished
8 | N[C@@H](CC(=O)N1CCn2c(nnc2C(F)(F)F)C1)Cc1cc(F)c(F)cc1F [sitagliptin, Sitagliptin] | promotes MYH11^+ SMC differentiation | –
9 | COC(=O)Nc1nc2ccc(Sc3ccc(NC(=O)Nc4cc(C(F)(F)F)ccc4F)cc3)cc2[nH]1 [GSK607049C] | promotes MYH11^+ SMC differentiation | –
10 | CC(C)(C(=O)NCC(F)(F)C(F)(F)F)C(=O)N[C@@H]1C(=O)Nc2ccccc2-c2ccccc21 [R04929097] | – | effect on RepSox improvement of MYH11-Tom+ cell differentiation (MYH11-Tom+ cells): abolished
11 | CC(=O)[N-]S(=O)(=O)c1ccc(N)cc1.O.[Na+] [sulfacetamide sodic hydrate, Sulfacetamide sodic hydrate] | promotes MYH11^+ SMC differentiation | –
12 | CC#CCn1c(N2CCC[C@@H](N)C2)nc2c1c(=O)n(Cc1nc(C)c3ccccc3n1)c(=O)n2C [BI-1356] | promotes MYH11^+ SMC differentiation | –
13 | CC1=C(/C=C/C(C)=C/C=C/C(C)=C/C(=O)O)C(C)(C)CCC1 [retinoic acid, All-Trans Retinoic Acid] | promotes MYH11^+ SMC differentiation | inhibition of intimal hyperplasia in previous studies (intimal hyperplasia): inhibit intimal hyperplasia
14 | Cc1c[nH]c(-c2cnc(NCCNc3ccc(C#N)cn3)nc2-c2ccc(Cl)cc2Cl)n1 [CHIR99021] | – | MYH11 expression [2]: increased; cell proliferation at 36 hours [2]: decreased
15 | CCO.N#CC(=C(/N)Sc1ccccc1N)/C(C#N)=C(\N)Sc1ccccc1N [UO126, U0126-EtOH] | promotes MYH11^+ SMC differentiation | inhibition of intimal hyperplasia in previous studies (intimal hyperplasia): inhibit intimal hyperplasia
16 | O=C(Nc1ccc(OC(F)(F)F)cc1)c1sccc1NCc1ccnc2ccccc12 [OSI-930] | promotes MYH11^+ SMC differentiation | –
17 | O=C(O)C(Cc1c[nH]c2ccccc12)N1C(=O)c2ccccc2C1=O (stereo not shown) [RG108] | promotes MYH11^+ SMC differentiation | –
18 | COc1cc2ncnc(Nc3ccc4c(cnn4Cc4ccccc4)c3)c2cc1OC [GSK282449A] | promotes MYH11^+ SMC differentiation | –
19 | C[C@H](NC(=O)Cc1cc(F)cc(F)c1)C(=O)N[C@H](C(=O)OC(C)(C)C)c1ccccc1 [DAPT] | – | effect on RepSox improvement of MYH11-Tom+ cell differentiation (MYH11-Tom+ cells): abolished
20 | Nc1ccc(S(=O)(=O)Nc2ccnn2-c2ccccc2)cc1 [sulfaphenazole, Sulfaphenazole] | promotes MYH11^+ SMC differentiation | –
21 | N[C@@H]1C[C@H]1c1ccccc1 [tranylcypromine hydrochloride, Tranylcypromine hydrochloride] | promotes MYH11^+ SMC differentiation | –
22 | C[C@@H](N)[C@H]1CC[C@H](C(=O)Nc2ccncc2)CC1 [Y27632] | promotes MYH11^+ SMC differentiation | inhibition of intimal hyperplasia in previous studies (intimal hyperplasia): inhibit intimal hyperplasia
23 | CNC(=O)c1cc(Oc2ccc(NC(=O)Nc3cc(C(C)(C)C)nn3-c3ccc4ncccc4c3)c(F)c2)ccn1 [DCC-2036, DCC-2036 (Rebastinib)] | promotes MYH11^+ SMC differentiation | –
24 | NS(=O)(=O)c1cc2c(cc1C(F)(F)F)NCNS2(=O)=O [hydroflumethiazide, Hydroflumethiazide] | promotes MYH11^+ SMC differentiation | –
